Where “and” joins values, the source holds several entries; their conditions need not be identical. Equal values may be shown once.
How the values were obtained:
[1] = test system: IFN-γ and TNF-α in LLC OE NAMPT/PD-L1 tumor tissues; assay: ELISA of IFN-γ and TNF-α in tumor tissues of LLC OE NAMPT/PD-L1 mouse model; parameters: unit not given here; conditions: in vivo, tumor tissue, CQ-85 20 mg/kg
[2] = test system: glycolytic genes in A549 KO HIF-1α cells; assay: RT-PCR of glycolytic genes, A549 KO HIF-1α cells co-cultured with PBMC; type: cell-based, human; conditions: A549 KO HIF-1α co-cultured with PBMC
Procedure: (§1) Total RNA was isolated using TRIzol reagent (Invitrogen, 15596026) according to the manufacturer's protocol. First-strand cDNA synthesis was performed using a RevertAid First Strand cDNA Synthesis Kit (Thermo Fisher, […]). Quantitative real-time PCR analysis was performed by mixing 10 μl SYBR, 0.4 μM forward primer, 0.4 μM reverse primer, 1 μl cDNA, and 8.2 μl distilled water per sample with Top Green qPCR SuperMix (Transgene, AQ601-04) by the manufacturer's protocols. GAPDH was used as an endogenous control. All qRT-PCRs were set up in triplicate using three biological replicates for each sample. Primer information is shown in Appendix Table S1.

[3] = test system: glycolytic genes in LLC cells; assay: RT-PCR of glycolytic genes in LLC cells with or without T cells; type: cell-based, mouse; parameters: key to HK2 mRNA level / Glut1 mRNA level / Aldoa mRNA level / Eno1 mRNA level: relative mRNA level normalized to GAPDH (endogenous control)
Procedure: as §1

[4] = test system: LLC OE NAMPT/PD-L1 tumors; assay: LLC OE NAMPT/PD-L1 tumor-bearing C57BL/6 mice; type: in vivo, mouse; conditions: 20 mg/kg i.p.; 14 days; Fig 7B
[5] = test system: NAD+ content of A549 cells; assay: NAD+ content, A549 cells with or without PBMC; type: cell-based, human; parameters: unit not given here
Procedure: (§2) NAD^+ assays were performed to quantify the total NAD^+ content. NAD^+ assay was performed using the NAD/NADH Assay Kit (ab65348; Abcam) according to the manufacturer’s recommended protocol.

[6] = test system: IFN-γ and TNF-α secretion, LLC cells co-cultured with T cells; assay: ELISA of IFN-γ and TNF-α, LLC cells under co-culture condition; type: cell-based, mouse; parameters: unit not given here; conditions: in vitro
[7] = test system: pyruvate content of A549 KO HIF-1α cells; assay: Pyruvate (PA) content, A549 KO HIF-1α cells with or without PBMC; type: cell-based, human; parameters: unit not given beside the values
Description: Supplement 44321_2024_51_MOESM3_ESM.zip/Fig-2-K-PA.xlsx, sheet "Sheet1" | column: A549 KO HIF-1α

[8] = test system: NAD+ content of A549 KO HIF-1α cells; assay: NAD+ content, A549 KO HIF-1α cells with or without PBMC; type: cell-based, human; parameters: unit not given here
Procedure: as §2

[9] = test system: NAD+ content of LLC cells; assay: NAD+ content in LLC cells with or without T cells; type: cell-based, mouse; parameters: unit not given here
Procedure: as §2

[10] = test system: pyruvate content of A549 cells; assay: Pyruvate (PA) content, A549 cells with or without PBMC; type: cell-based, human; parameters: unit not given beside the values
Description: Supplement 44321_2024_51_MOESM3_ESM.zip/Fig-2-K-PA.xlsx, sheet "Sheet1" | column: A549

[11] = test system: NAMPT expression in LLC OE NAMPT/PD-L1 tumors; assay: NAMPT protein expression in LLC constructed xenograft model; type: in vivo, mouse; conditions: CQ-85 20 mg/kg vs control group
[12] = test system: glycolytic genes in A549 cells; assay: RT-PCR of glycolytic genes, A549 cells co-cultured with PBMC; type: cell-based, human; parameters: key to Aldoa mRNA level / Eno1 mRNA level / HK2 mRNA level / Glut1 mRNA level: relative mRNA level normalized to GAPDH (endogenous control)
Procedure: as §1

[13] = test system: pyruvate content of LLC cells; assay: Pyruvate (PA) content in LLC cells with or without T cells; type: cell-based, mouse; parameters: unit not given beside the values
Description: Supplement 44321_2024_51_MOESM3_ESM.zip/Fig-2-G.xlsx, sheet "Sheet1" | column: "-T cells; "+T cells

Compound: O=C(c1ncc(CNC2CCOCC2)s1)N1CCc2c(-c3ccc4c(c3)OCCO4)cccc21 [CQ-85]
- IFN-γ (ELISA) [1]: 32.0391 and 39.4609 and 37.7422 and 48.3828
- TNF-α (ELISA) [1]: 49.9785 and 53.7419 and 61.1613 and 63.957
- Aldoa mRNA level [2]: 0.8971 and 0.8909 and 1.1434
- Eno1 mRNA level [2]: 0.7363 and 0.9515 and 0.8284
- Pfk1 mRNA level [2]: 0.9428 and 1.091 and 0.7397
- Aldoa mRNA level ([3]; +T Cells): 3.122 and 3.144 and 2.933
- Eno1 mRNA level ([3]; +T Cells): 1.63 and 2.181 and 1.51
- HK2 mRNA level ([3]; +T Cells): 1.976 and 1.225 and 1.397
- Pfk1 mRNA level ([3]; +T Cells): 4.524 and 5.686 and 6.18
- Aldoa mRNA level ([3]; -T Cells): 0.1409 and 0.1113 and 0.07549
- Eno1 mRNA level ([3]; -T Cells): 1.412 and 1.0924 and 0.8165
- Glut1 mRNA level ([3]; -T Cells): 0.4601 and 0.3164 and 0.3635
- HK2 mRNA level ([3]; -T Cells): 1.925 and 1.641 and 1.032
- TIR / tumor growth inhibition (TGI) rate at endpoint [4]: 45.36%
- content of NAD+ ([5]; +PBMC): 9.197 and 8.685 and 8.9355
- content of NAD+ ([5]; -PBMC): 11.8739 and 12.9843 and 12.9544
- IFN-γ (ELISA) [6]: 156.023 and 118.367 and 126.961
- TNF-α (ELISA) [6]: 198.796 and 198.903 and 183.742
- content of pyruvate (PA) ([7]; +PBMC): 0.1029 and 0.09765 and 0.1064
- content of pyruvate (PA) ([7]; -PBMC): 0.08688 and 0.08738 and 0.09664
- content of NAD+ ([8]; +PBMC): 10.9402 and 9.994 and 10.0633
- content of NAD+ ([8]; -PBMC): 11.853 and 11.7415 and 11.8655
- content of NAD+ ([9]; taken as +T cells by analogy with Fig 2G): 6.631 and 6.489 and 6.614
- content of NAD+ ([9]; taken as -T cells by analogy with Fig 2G): 10.4157 and 11.1416 and 12.0617
- content of pyruvate (PA) ([10]; +PBMC): 0.2271 and 0.2241 and 0.2316
- content of pyruvate (PA) ([10]; -PBMC): 0.1159 and 0.1109 and 0.1297
- effect on NAMPT protein expression [11]: upregulate the protein expression of NAMPT
- Aldoa mRNA level [12]: 0.8847 and 0.8971 and 0.9885
- Eno1 mRNA level [12]: 1.112 and 1.398 and 1.35
- Glut1 mRNA level [12]: 2.253 and 2.993 and 2.146
- HK2 mRNA level [12]: 5.011 and 5.445 and 5.877
- Pfk1 mRNA level [12]: 1.666 and 1.544 and 1.005
- content of pyruvate (PA) ([13]; +T Cells): 0.4897 and 0.4757 and 0.4584
- content of pyruvate (PA) ([13]; -T Cells): 0.334 and 0.378 and 0.3588
